# Measured values from the SangsterLogP compilation.
row,SMILES,logP
1,CC#CC#Cc1ccc(C#CC(Cl)COC(C)=O)s1 (stereo unspecified),4.6
2,O=C/C=C/C#CC#Cc1ccccc1,3.09
3,C/C=C/C#CC#CC#C/C=C/C(Cl)CO (stereo unspecified),3.91
4,C/C=C/C#CC#C/C=C/C(=O)OC,2.45
5,CC#CC#CC#C/C=C\C(=O)OC,2.42
6,CC=CC#CC=C1C=CC(=O)O1,2.09
7,c1csc(-c2ccc(-c3cccs3)s2)c1,5.57
8,C=CC#Cc1ccc(-c2cccs2)s1,5.15
9,CC#CC#CC#Cc1ccccc1,4.91
10,OC/C=C/C#CC#Cc1ccccc1,2.48
11,C/C=C/C#CC#Cc1ccccc1,4.76
